Assays:
[1] = Reactivity with mixture of small biological nucleophiles by ESI-MS; type: physicochemical; conditions: for Intact compound after 24 h, nucleophile mixture: equimolar Cys/Met/His/ATP/GTP, each 50 μM, ESI-MS; for reaction with nucleophile mixture within 24 h: 50 μM
Experimental: Then, the compounds were analogously incubated with an equimolar mixture of cysteine, methionine, histidine, adenosine triphosphate and guanosine triphosphate to verify coordination preferences for amino acids over nucleotides. The reactivity of the four compounds was qualitatively similar, characterized by release of the NQ ligands and formation of mainly methionine and histidine-adducts with the metal(arene) (ESI, Fig. S13 ^†). No metalation of the nucleotides was observed. In contrast to other O,O-ligand systems, which are typically deactivated within minutes by ligand release under such conditions,[51,52] the N,O,O-tridentate organometallics studied here were characterized by increased stability. […] Again, the 3-Morph-NQ ligand was detected upon release from the metal centre, but hydrolysis dimers were not observed in the presence of bionucleophiles (ESI, Fig. S13 ^†). The reactivity of the compounds towards an equimolar concentration of the model protein ubiquitin was characterized by similar kinetic behaviours and reactivity (ESI, Fig. S14 ^†). […]
aliquot was used for stability testing of the respective test substance in aqueous solution. […]
2b were equimolarly added (50 µM) to a mixture of three amino acids and two nucleotides (Cys/Met/His/ATP/GTP; each 50 µM in aqueous solution) to test the interaction with small biological nucleophiles. All samples were mixed and incubated in a shaking incubator at 37 °C with speed set to 1000 rpm in the dark (Eppendorf ThermoMixer® C). After 1.5 h, 24 h and 72 h, 300 µL per sample were transferred to fresh reaction vessels, immediately frozen in liquid N2 and stored at –20 °C until measurement.
Samples were diluted to a concentration of 2.5 µM with an organic eluent (49.5% v/v acetonitrile, 49.5% v/v methanol,1% v/v H2O), except ubiquitin containing samples which were diluted to the same concentration with acidified H2O (0.1% v/v formic acid). The samples were then analysed by flow-injection using an amazon speed ETD ion trap (Bruker Daltonics) in the positive ion mode over 0.4 min using the following experimental parameters: HV capillary ±4.5 kV, end plate offset –500 V, dry temp 180 °C, nebulizer 3 bar, dry gas 5 L min-1, scan range m/z 200–1400, target mass m/z 900, flow rate 5 µL min-1. For ubiquitin containing samples, the scan range was adapted to m/z 300– 2200 with a target mass of m/z 1100. Data

[2] = Solubility in phosphate buffered saline; type: physicochemical; conditions: PBS with 1% DMSO
Excerpt: Fig. 2 (A) Chemical structures of the investigated naphthoquinone-based metal(arenes) in this study.

[3] = tested on: CT26 colon carcinoma; test: Anti-tumour activity in subcutaneous CT26 allografts; type: in vivo, BALB/c mice; conditions: for tumour growth compared to vehicle-treated controls: i.p. over two weeks, 10 mg kg^−1 (1a, 2a), 30 mg kg^−1 (1b, 2b)
Experimental: Tumour inhibition of the four compounds was evaluated in subcutaneous CT26 allografts using BALB/c mice, since it represents an appropriate immune competent mouse model to study colon carcinoma. The compounds were administered intraperitoneally (i.p.) over two weeks at doses of 10 mg kg^−1 for the 3-Et-NQ complexes and 30 mg kg^−1 for the 3-Morph-NQ complexes. The different dosages were selected as maximal tolerable doses (MTDs) after an initial toxicity screen (data not shown).
Animals. All experiments were carried out with male Balb/c mice according to the regulation of the Ethics Committee for the Care and Use of Laboratory Animals at the Medical University Vienna (BMWF-2022-0.770.291), the guidelines from the Austrian Animal Science Association and the Federation of European Laboratory Animal Science Associations (FELASA). The animals were kept in a pathogen-free conditions, controlled environment with 12 h light–dark cycle with ad libitum access to food and water. Every procedure was done in a laminar airflow […]
Treatment. CT-26 cells ([…] in 50 μL serum-free medium) were injected subcutaneously (s.c.) into the right flank of ten– to eleven-week-old male Balb/c mice. Three days after cell injection, all compounds (dissolved in 10% DMSO in water) were administered […]
1b/2b. Regarding anticancer activity experiments, mice were treated on 5 consecutive days […]
over 2 weeks. […]

[4] = tested on: HCT116 TP53-knockout (TP53KO) cell line; test: MTT viability assay, HCT116 TP53-knockout, 96 h; type: cell-based, human
Experimental: removed and 100 µL DMSO was added to dissolve the formazan crystals. Photometric quantification was performed at 570 nm with a Multiskan Go 1510 photometer (Thermo Fisher […]
The absorbances were blank corrected and converted to relative proliferation. The IC50 values (concentration of 50% growth inhibition) were obtained using a sigmoidal fit of the experimental data and calculated as the mean ± standard deviation of at least three independent experiments, each in at least triplicates.
HCT116, HCT116 p53KO (each 2.000 cells/well) and CT-26 cells (500 cells/well) were seeded in 100 µL/well into flat-bottom 96-well plates (Starlab) and incubated at 37 °C for 96 h in a humidified incubator (Binder CB210) at 5% CO2. The test compound was dissolved in DMSO, serially diluted in the appropriate cell culture medium (see section above) to final DMSO concentrations of ≤0.5% v/v and 100 µL aliquots added to wells in triplicates. […] Optical densities were measured with a microplate reader (ELx808, Biotek) at a wavelength of 550 nm (and a reference wavelength of 690 nm) and blank corrected. […]
(each 3.000 cells/well) were seeded in 100 µL/well into flat-bottom 96-well plates (Starlab) and incubated at 37 °C for 24 h in a humidified incubator (Binder CB210) at 5% CO2. […] After 24 h of treatment, plates were measured by MTT assay as described above. […]

[5] = tested on: CH1/PA-1; set-up: method as in Ref. 1 (ESI); conditions: 96 h incubation; ref Ref. 1 (ESI); cited from earlier work
[6] = tested on: SW480; set-up: method as in earlier work; conditions: 96 h incubation; ref 48 (ESI Ref. 1); cited from earlier work

SMILES	Intact compound after 24 h, nucleophile mixture [1] [%]	Solubility in PBS [2] [µM]	tumour growth compared to vehicle-treated controls [3]	reaction with nucleophile mixture within 24 h [1]	IC50 [4] [µM]	IC50 [5] [µM]	IC50 [6] [µM]	reduction in tumour volume on day 13 ([3]; 10 mg kg^−1 i.p. over two weeks, vs vehicle) [%]	tumour inhibition, 1-week experiment ([3]; 10 mg kg^−1 i.p., five consecutive days)
CCC1=C2[O][Os][O]C2(n2cccn2)c2ccccc2C1=O.Cc1ccc(C(C)C)cc1 (stereo not drawn) [Compound 2a]	19	210	significantly inhibit tumour growth						
CCC1=C2[O][Ru][O]C2(n2cccn2)c2ccccc2C1=O.Cc1ccc(C(C)C)cc1 (stereo not drawn) [Compound 1a, [(3-ethyl-4-oxo-(pyrazolyl)-dihydronaphthalene)(cymene)ruthenium(II)]]	4	170	significantly inhibit tumour growth	reacted nearly quantitatively	0.26 ± 0.01	62 ± 5	0.046 ± 0.007	44	statistically significant tumour inhibition
Cc1ccc(C(C)C)cc1.O=C1C(CN2CCOCC2)=C2[O][Ru][O]C2(n2cccn2)c2ccccc21 (stereo not drawn) [Compound 1b]	7	1220	inactive	reacted nearly quantitatively		150 ± 20	33 ± 2		
